Measured values reported in publication PMC6255327, “Design of Antimicrobially Active Small Amphiphilic Peptide Dendrimers” (Molecules, 2009).
Structures can show the parent of a compound that is named as a salt.

Assays:
[1] = test system: P. aeruginosa ATCC 27853; assay type: cell-based, Pseudomonas aeruginosa; conditions: ATCC 27853, 24 h
Procedure: (§1) Bacteria. Staphylococcus aureus ATCC 25923, Pseudomonas aeruginosa ATCC 27853, Escherichia coli ATCC 25922 and Staphylococcus aureus ATCC 43300 were cultivated on tryptone - soy agar (TSA; Oxoid). Klebsiella pneumoniaeATCC 13882, Bordetella bronchiseptica ATCC 4617, Acinetobacter baumannii ATCC 19606 were cultivated onto nutrient agar (Difco). Escherichia coli ATCC BAA-198 was cultivated on TSA with ceftazidime (10 µg/mL or 15.7 μM; Sigma). All strains were incubated during 24 hrs at 37 °C.
(§2) Medium. Mueller – Hinton Broth (Oxoid) was supplemented with cations: 12.5 mg Mg ^++/L and25 mg Ca^++/L. The pH of the medium after sterilization is between 7.2 and 7.4 [cation–adjusted Mueller – Hinton Broth” (CAMHB)].
(§3) Reference method. Broth microdilution susceptibility test was performed as described in […] reference method M7-A7 (2). A series of the twofold dendrimers dilutions in DMSO and twofold polymyxin B and penicillin G dilutions in CAMHB were diluted […] with CAMHB. Aliquots (95 µL) were dispensed into microdilution sterile plates (Mar-Four). Then, bacteria inoculum (5 µL) containing 5 × 10^4 CFU/mL were added. The final concentration of dendrimers ranged from 128 to 2 µg/mL [or 105 to 1.6 μM for an average molecular mass for 7 series (1213) and 61 to 0.9 μM for an average molecular mass for 10 series(2,103)], polymyxin B and penicillin G from 8 – 0.15 µg /mL (or 5.8 to 0.1 μM and 21.5 to 0.4 μM, respectively for polymyxin B and penicillin G), all in twofold dilution steps. The plates were incubated at 35 °C and read after 18 or 24 hours depending on bacterial strain. MICs (Minimal Inhibitory Concentration) was defined as the lowest drug concentration that reduced growth by 100%.

[2] = test system: A. baumani ATCC 19606; assay type: cell-based, Acinetobacter baumannii; conditions: ATCC 19606, 24 h
Procedure: as §1, §2, §3

[3] = test system: S. aureus ATCC 43300; assay type: cell-based, Staphylococcus aureus; conditions: ATCC 43300, 24 h
Procedure: as §1, §2, §3

[4] = test system: E.coli ATCC 25922; assay type: cell-based, Escherichia coli; conditions: ATCC 25922, 24 h
Procedure: as §1, §2, §3

[5] = test system: E. coli ATCC BAA-198; assay type: cell-based, Escherichia coli; conditions: ATCC BAA-198, 24 h
Procedure: as §1, §2, §3

[6] = test system: C. albicans ATCC 90028; assay type: cell-based, Candida albicans; conditions: ATCC 90028, 48 h, pH 7
Procedure: (§4) Yeasts: Candida albicans ATCC 90028, Candida parapsilosis ATCC 22019 and Candida krusei ATCC 6258 were cultivated onto Sabouraud dextrose agar (Difco) during 24 hrs at 35 °C.
(§5) Medium: RPMI – 1640 (Sigma) supplemented with 0.2% (wt/vol) glucose, 0.3 g/L L-glutamine, 0.0053 g/L phenol red, buffered with morpholinopropanesulfonic acid (MOPS; Sigma) at a final concentration of 0.165 M and adjusted to pH 7.0 was prepared.
(§6) Reference Method: The broth microdilution susceptibility test was performed as described in Clinical and Laboratory Standards Institute (CLSI) reference method M27 – A2 (1). A series of the twofold dendrimers and amphotericin B dilutions in DMSO were diluted 1:49 with RPMI.

[7] = test system: C. parapsilosis ATCC 22019; assay type: cell-based, Candida parapsilosis; conditions: ATCC 22019, 48 h, pH 7
Procedure: as §4, §5, §6

[8] = test system: C. krusei ATCC 6258; assay: microbe, parasite or virus in culture; assay type: cell-based, Candida krusei; conditions: ATCC 6258, 48 h, pH 7; read-out: Minimal inhibitory concentration (MIC)
Procedure: as §4, §5, §6

[9] = test system: K. pneumoniae ATCC 13882; assay type: cell-based, Klebsiella pneumoniae; conditions: ATCC 13882, 24 h
Procedure: as §1, §2, §3

[10] = test system: B. bronchiseptica ATCC 4617; assay type: cell-based, Bordetella bronchiseptica; conditions: ATCC 4617, 24 h
Procedure: as §1, §2, §3

[11] = test system: S. aureus ATCC 25923; assay: microbe, parasite or virus in culture; assay type: cell-based, Staphylococcus aureus; conditions: ATCC 25923, 24 h, pH 7.2; read-out: Minimal inhibitory concentration (MIC)
Procedure: as §1, §2, §3

[12] = test system: human red blood cells; assay: Hemolysis assay; assay type: cell-based; conditions: at a concentration of 400 μM, 1% hematocrit in PBS pH 7.4, 30 min at 23 °C, absorbance at 540 nm
Procedure: Dendrimer induced hemolysis was observed as previously reported. Briefly, serum free human red blood cells obtained from the Institute of Hematology and Transfusion Medicine in Warsaw, were suspended in phosphate buffered saline (PBS, pH 7.4). Prepared suspension of 1% hematocrit was incubated with serial concentration of dendrimers for 30 min at 23 °C. After centrifugation (1,000 rpm, 5 min) the absorbance of supernatant was measured at 540 nm (Jasco 630, Japan). A value of 100% hemolysis was determined by incubation of erythrocytes with double-distilled water (30 min at 23^o). In a control experiment, cells were incubated in buffer without peptide and absorbance at 540 nm value was used as a blank.
A - absorbance of the samples incubated with dendrimers; Ab – absorbance of the blank samples; A100% - absorbance of the reference; Ac - absorbance of red blood cells in PBS, hematocrit 1%.

| Minimal inhibitory concentration (MIC) [1] [µM] | Minimal inhibitory concentration (MIC) [2] [µM] | Minimal inhibitory concentration (MIC) [3] [µM] | Minimal inhibitory concentration (MIC) [4] [µM] | Minimal inhibitory concentration (MIC) [5] [µM] | Minimal inhibitory concentration (MIC) [6] [µM] | Minimal inhibitory concentration (MIC) [7] [µM] | MIC [8] [µM] | Minimal inhibitory concentration (MIC) [9] [µM] | Minimal inhibitory concentration (MIC) [10] [µM] | MIC [11] [µM] | SMILES | toxicity (hemolysis) [12] [%] |
| --- | --- | --- | --- | --- | --- | --- | --- | --- | --- | --- | --- | --- |
| 86 | >86 | 21.6 | 86 | 43 | >86 | 86 | 43 | >86 | 5.4 | 21.6 | NCCCC[C@H](NC(=O)OCc1ccccc1Cl)C(=O)NCCCN[C@@H](CCCCN(CCCNC(=O)[C@H](CCCCN)NC(=O)OCc1ccccc1Cl)CCCNC(=O)[C@H](CCCCN)NC(=O)OCc1ccccc1Cl)C(=O)NCc1ccccc1 [Compound 7h, N,N,N’-tris[(N^α-2-chlorobenzyloxycarbonyl)-L-lysil-3-aminopropyl]-L-lysine benzylamide penta-hydrochloride] |  |
| 47 | 13.8 | 7.3 | 7.3 | 6.9 | 6.9 | 6.9 | 6.9 | >55 | 3.4 | 1.3 | NCCCC[C@H](NC(=O)OCc1ccccc1Cl)C(=O)N[C@@H](Cc1ccccc1)C(=O)NCCCN(CCCNC(=O)[C@H](Cc1ccccc1)NC(=O)[C@H](CCCCN)NC(=O)OCc1ccccc1Cl)CC[C@@H](CO)N(CCCNC(=O)[C@H](Cc1ccccc1)NC(=O)[C@H](CCCCN)NC(=O)OCc1ccccc1Cl)CCCNC(=O)[C@H](Cc1ccccc1)NC(=O)[C@H](CCCCN)NC(=O)OCc1ccccc1Cl [Compound 10b, N,N',N,N’-tetrakis[(N^α-2-chlorobenzyloxycarbonyl)-L-lysil-L-phenylalanyl-3-aminopropyl]-L-α,δ-diaminobutanol hexahydrochloride] |  |
| 48 | >88 | 10.3 | 48 | >89 | >89 | 89 | 44 | >88 | 11 | 11.7 | NCCCC[C@H](NC(=O)OCc1ccccc1Cl)C(=O)NCCCN[C@@H](CCN(CCCNC(=O)[C@H](CCCCN)NC(=O)OCc1ccccc1Cl)CCCNC(=O)[C@H](CCCCN)NC(=O)OCc1ccccc1Cl)C(=O)NCc1ccccc1 [Compound 7f, N,N,N’-tris[(N^α-2-chlorobenzyloxycarbonyl)-L-lysil-3-aminopropyl]-L-diaminobutyro benzylamide pentahydrochloride] |  |
| 14 | 3.4 | 1.7 | 6.8 | 3.4 | 6.8 | 3.4 | 3.4 | >54 | 1.7 | 3.4 | NCCCC[C@H](NC(=O)OCc1ccccc1Cl)C(=O)N[C@@H](Cc1ccccc1)C(=O)NCCCN(CCCC[C@@H](CO)N(CCCNC(=O)[C@H](Cc1ccccc1)NC(=O)[C@H](CCCCN)NC(=O)OCc1ccccc1Cl)CCCNC(=O)[C@H](Cc1ccccc1)NC(=O)[C@H](CCCCN)NC(=O)OCc1ccccc1Cl)CCCNC(=O)[C@H](Cc1ccccc1)NC(=O)[C@H](CCCCN)NC(=O)OCc1ccccc1Cl [Compound 10d, N,N',N,N’-tetrakis[(N^α-2-chlorobenzyloxycarbonyl)-L-lysil-L-phenylalanyl-3-aminopropyl]-L-α,ε-diaminohexanol hexahydrochloride] |  |

| SMILES | Minimal inhibitory concentration (MIC) [1] [µM] | Minimal inhibitory concentration (MIC) [2] [µM] | Minimal inhibitory concentration (MIC) [3] [µM] | Minimal inhibitory concentration (MIC) [4] [µM] | Minimal inhibitory concentration (MIC) [5] [µM] | Minimal inhibitory concentration (MIC) [6] [µM] | Minimal inhibitory concentration (MIC) [7] [µM] | MIC [8] [µM] | Minimal inhibitory concentration (MIC) [9] [µM] | Minimal inhibitory concentration (MIC) [10] [µM] | MIC [11] [µM] | toxicity (hemolysis) [12] [%] |
| --- | --- | --- | --- | --- | --- | --- | --- | --- | --- | --- | --- | --- |
| NCCCC[C@H](NC(=O)OCc1ccccc1Cl)C(=O)NCCCN[C@@H](CCCN(CCCNC(=O)[C@H](CCCCN)NC(=O)OCc1ccccc1Cl)CCCNC(=O)[C@H](CCCCN)NC(=O)OCc1ccccc1Cl)C(=O)NCc1ccccc1 [Compound 7g, N,N,N’-tris[(N^α-2-chlorobenzyloxycarbonyl)-L-lysil-3-aminopropyl]-L-ornithine benzylamide penta-hydrochloride] | 21.8 | 5.4 | 10.9 | 21.8 | 10.9 | 10.9 | 5.4 | 5.4 | 87 | 2.7 | 10.9 | 32 |
